Assay results: patent publication US11351178B2, “Selective HDAC6 inhibitors” (ITALFARMACO S.P.A., priority 2017, dated 2022)

Tests used:
Stability in rat plasma = type: in vitro ADME; details: after 4 hours, 37° C.
Outline: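 Compounds incubated at 37° C in rat or human plasma at 50 μM (UV/HPLC) or 1 or 2 μM (LC-MS/MS) for 0–4 h. Reaction stopped with acidified acetonitrile on ice; percent remaining versus initial amount and plasma half-life calculated.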

[1] = tested on: B 697 promyelocytic cell line; assay: Cytotoxicity on 697 cell line (CellTiter 96); type: cell-based; details: 72 hours incubation, read-out: 697 TOXICITY
Outline: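 Cells seeded (2×10^4/well for 697, 5×10^5/well for PBMCs); compounds added after 24 h at 1–10000 nM (697) or 1.5–10000 nM (PBMCs) and incubated 72 h. Viability read by CellTiter 96 Aqueous One tetrazolium assay of mitochondrial function.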

[2] = Stability to Phase I metabolism in rat S9 liver fraction; type: in vitro ADME; details: after 90 min, 37° C.
Outline: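 Compounds were incubated with rat or human liver S9 fraction at 37 °C for up to 90 min. Reactions were quenched on ice with acidified acetonitrile and analysed by HPLC-UV or LC-MS/MS. Percent remaining versus time zero and intrinsic clearance were calculated.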

[3] = tested on: peripheral blood mononuclear cells (PBMCs); assay: Cytotoxicity on PBMCs (CellTiter 96); type: cell-based; details: PBMC, 72 h; read-out: PBMC TOXICITY (72 h)
Protocol: Cytotoxic activity was evaluated on B 697 […] cell line for all synthesized compounds and on peripheral blood mononuclear cells (PBMCs) for compounds showing a good potency/selectivity profile.
Cells were seeded in plate (2×10^4 cells per well for 697, 5×10^5 cells per well for PBMCs). The test compounds (concentrations from 1.5 nM to 10000 nM for PBMCs and from 1 nM to 10000 nM for 697) were added after 24 hours and incubated 72 hours. The molecules cytotoxic activity was evaluated using CellTiter 96© Aqueous One Solution Cell Proliferation Assay (Promega), which measures the mitochondria function, following the manufacturer's instructions.

recombinant human HDAC6 = target: T1, recombinant human HDAC6 (Homo sapiens, UniProt Q9UBN7); assay: Enzymatic screening on recombinant human HDAC6; type: biochemical; details: Table 2; read-out: HDAC6 IC50
T1 sequence (Q9UBN7 1-1215): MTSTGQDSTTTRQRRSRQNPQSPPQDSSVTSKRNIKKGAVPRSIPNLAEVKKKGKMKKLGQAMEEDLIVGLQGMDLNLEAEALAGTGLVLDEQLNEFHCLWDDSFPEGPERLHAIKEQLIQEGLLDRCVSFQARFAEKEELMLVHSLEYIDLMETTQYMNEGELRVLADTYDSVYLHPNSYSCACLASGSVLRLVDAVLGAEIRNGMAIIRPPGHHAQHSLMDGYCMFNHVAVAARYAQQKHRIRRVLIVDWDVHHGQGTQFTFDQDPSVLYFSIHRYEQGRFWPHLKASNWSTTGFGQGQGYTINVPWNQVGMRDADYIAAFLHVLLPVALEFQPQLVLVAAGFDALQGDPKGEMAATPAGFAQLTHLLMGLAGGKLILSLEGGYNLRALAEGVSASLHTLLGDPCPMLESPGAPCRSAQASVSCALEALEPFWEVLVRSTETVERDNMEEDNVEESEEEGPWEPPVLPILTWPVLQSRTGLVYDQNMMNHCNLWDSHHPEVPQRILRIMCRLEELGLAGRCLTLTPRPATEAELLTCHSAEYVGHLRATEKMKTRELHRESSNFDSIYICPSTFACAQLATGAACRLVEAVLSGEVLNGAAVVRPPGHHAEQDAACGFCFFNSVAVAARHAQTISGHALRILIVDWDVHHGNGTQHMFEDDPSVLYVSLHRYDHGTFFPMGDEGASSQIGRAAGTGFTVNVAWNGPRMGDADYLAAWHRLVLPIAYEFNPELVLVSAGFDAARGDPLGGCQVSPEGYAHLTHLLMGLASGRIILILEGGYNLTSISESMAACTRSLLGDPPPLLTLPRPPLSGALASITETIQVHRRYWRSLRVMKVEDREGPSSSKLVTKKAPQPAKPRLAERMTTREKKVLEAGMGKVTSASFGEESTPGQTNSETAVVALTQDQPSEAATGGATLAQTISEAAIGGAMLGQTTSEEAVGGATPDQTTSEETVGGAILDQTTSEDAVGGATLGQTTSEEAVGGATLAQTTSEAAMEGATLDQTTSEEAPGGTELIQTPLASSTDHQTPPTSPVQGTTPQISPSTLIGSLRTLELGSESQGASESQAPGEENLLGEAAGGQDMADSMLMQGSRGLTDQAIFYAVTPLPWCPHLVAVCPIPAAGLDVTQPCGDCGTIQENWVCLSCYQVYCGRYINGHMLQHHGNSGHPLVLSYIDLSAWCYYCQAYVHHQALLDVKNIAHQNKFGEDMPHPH
Outline: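 Recombinant human enzyme was incubated with compound at 30 °C for an isoform-dependent time, then substrate (FLUOR DE LYS, FLUOR DE LYS-Green or trifluoroacetyl-L-lysine) was added as a 2× solution in 25 mM Tris-HCl pH 8, 130 mM NaCl, 0.05% Tween-20, 10% glycerol. The deacetylation reaction then proceeded at 30 °C.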

[4] = Stability in human plasma; type: in vitro ADME; details: after 4 hours, 37° C.
Protocol: In order to evaluate the stability to circulating enzymes, test compounds were incubated in human and rat plasma at 37° C. in a thermostated oscillating bath. Each test compound was incubated at μM (50 μM when the samples were analysed by UV/HPLC, 1 or 2 μM when the samples were analysed by LC-MS/MS) concentration for 0, 15, 30 min and 1, 2 and 4 hours. The reaction was stopped placing tubes on ice bath and adding acidified acetonitrile. After centrifugation for 10 minutes at 14000 rpm, an aliquot of the supernatant was diluted with water, filtered with 0.45 μm syringe filters and injected in HPLC-UV or in LC-MS/MS. The percentages of amount remaining at the various times of incubation with respect to initial amount were calculated. The half-life in plasma was also calculated.

[5] = Stability to Phase I metabolism in human S9 liver fraction; type: in vitro ADME; details: human, 90 min, pH 7.4
Protocol: Test compounds were incubated in rat and human liver S9 fraction at 37° C. up to 90 minutes in order to evaluate their stability to Phase I metabolism by hepatic enzymes. […] The reaction was stopped placing samples on ice bath and adding acidified acetonitrile. After centrifugation (10 minutes at 14000 rpm) an aliquot of the supernatant was diluted water, filtered with 0.45 μm regenerated cellulose syringe filters and injected in HPLC-UV or in LC-MS/MS. The percentages of the amount remaining at the various incubation times with respect to the initial amount were calculated. The intrinsic clearance was also calculated.

With `Cc1nc(N2CCOCC2)sc1-c1nnc(Sc2c(F)cc(C(=O)NO)cc2F)n1C` [comp. 9, 3,5-difluoro-N-hydroxy-4-((4-methyl-5-(4-methyl-2-morpholinothiazo-5-yl)-4H-1,2,4-triazol-3-yl)thio)benzamide] as the compound, how does the “residual percentage in rat plasma” value (Stability in rat plasma) read?
Its value is 106%.

What about the IC50 [1] of the same compound?
Its IC50 is greater than 10000 nM.

What about the “residual percentage in rat S9 fraction” value [2] of the same compound?
The value was 75%.

What about the IC50 [3] of the same compound?
The IC50 was greater than 10000 nM.

What about the IC50 (recombinant human HDAC6) of the same compound?
The IC50 was 79 nM.

Which results are given for `Cn1c(Sc2c(F)cc(C(=O)NO)cc2F)nnc1-c1ccc(CN2CCCCC2)cc1` [comp. 16, 3,5-difluoro-N-hydroxy-4-((4-methyl-5-(4-(piperidin-1-ylmethyl)phenyl)-4H-1,2,4-triazol-3-yl)thio)benzamide]?
residual percentage in rat plasma (Stability in rat plasma): 75%; IC50 [1]: 7880 nM; residual percentage in rat S9 fraction [2]: 74%; IC50 [3]: 7500 nM; IC50 (recombinant human HDAC6): 5 nM

For `Cc1nc(N2CCOCC2)sc1-c1nnc(Cc2ccc(C(=O)NO)cc2)o1` [comp. 75, 4-[[5-(4-methyl-2-morpholino-thiazol-5-yl)-1,3,4-oxadiazol-2-yl]methyl]benzenecarbohydroxamic acid], which “residual percentage in rat plasma” value (Stability in rat plasma) is on record?
Its value is 116%.

What about the IC50 [1] of the same compound?
Its IC50 is 1200 nM.

And the “residual percentage in rat S9 fraction” value [2]?
The value was 75%.

And the IC50 [3]?
The IC50 was 514 nM.

And the IC50 (recombinant human HDAC6)?
The IC50 was 4 nM.

Which “residual percentage in rat plasma” value (Stability in rat plasma) does the source give for `O=C(NO)c1ccc(Cn2nnc(-c3nccc4ccccc34)n2)cc1` [comp. 87, 4-[[5-(1-isoquinolyl)tetrazol-2-yl]methyl]benzenecarbohydroxamic acid] here?
Its value is 0%.

What about the IC50 [1] of the same compound?
Its IC50 is 6660 nM.

And the “residual percentage in rat S9 fraction” value [2]?
Its value is 77%.

What about the IC50 [3] of the same compound?
The IC50 was 6000 nM.

What about the IC50 (recombinant human HDAC6) of the same compound?
The IC50 was 20 nM.

What does the source list for `O=C(NO)c1ccc(Cn2nnnc2-c2ccc3ccccc3n2)cc1` [comp. 91, 4-[[5-(2-quinolyl)tetrazol-1-yl]methyl]benzenecarbohydroxamic acid]?
residual percentage in rat plasma (Stability in rat plasma): 93%; IC50 [1]: 783 nM; residual percentage in rat S9 fraction [2]: 8%; IC50 [3]: 812 nM; IC50 (recombinant human HDAC6): 3 nM

What does the source list for `O=C(NO)c1cc(F)c(Cn2nnnc2-c2ccco2)c(F)c1` [comp. 92, 3,5-difluoro-4-[[5-(2-furyl)tetrazol-1-yl]methyl]benzenecarbohydroxamic acid]?
residual percentage in rat plasma (Stability in rat plasma): 79%; IC50 [1]: > 10000 nM; residual percentage in rat S9 fraction [2]: 71%; IC50 [3]: > 10000 nM; IC50 (recombinant human HDAC6): 27 nM

Which results are given for `O=C(NO)c1cc(F)c(Cn2nnc(-c3nccc4ccccc34)n2)c(F)c1` [comp. 93, 3,5-difluoro-4-[[5-(1-isoquinolyl)tetrazol-2-yl]methyl]benzenecarbohydroxamic acid]?
residual percentage in rat plasma (Stability in rat plasma): 10%; IC50 [1]: > 10000 nM; residual percentage in rat S9 fraction [2]: 53%; IC50 [3]: > 10000 nM; IC50 (recombinant human HDAC6): 22 nM

Which results are given for `Nc1ccc(-c2nnn(Cc3ccc(C(=O)NO)cc3)n2)cc1` [comp. 169, 4-[[5-(4-aminophenyl)tetrazol-2-yl]methyl]benzenecarbohydroxamic acid]?
residual percentage in rat plasma (Stability in rat plasma): 68%; IC50 [1]: 271 nM; residual percentage in rat S9 fraction [2]: 44%; IC50 [3]: 24 nM; IC50 (recombinant human HDAC6): 1 nM

For `Cn1c(Sc2c(F)cc(C(=O)NO)cc2F)nnc1-c1cccc(CN2CCCCC2)c1` [comp. 181, 3,5-difluoro-4-[[4-methyl-5-[3-(1-piperidylmethyl)phenyl]-1,2,4-triazol-3-yl]sulfanyl]benzenecarbohydroxamic acid], which IC50 [1] is on record?
The IC50 was 50300 nM.

And the IC50 [3]?
Its IC50 is greater than 10000 nM.

What about the IC50 (recombinant human HDAC6) of the same compound?
Its IC50 is 10 nM.

With `Cn1c(Sc2c(F)cc(C(=O)NO)cc2F)nnc1-c1cccc(CN2CCOCC2)c1` [comp. 182, 3,5-difluoro-4-[[4-methyl-5-[3-(morpholinomethyl)phenyl]-1,2,4-triazol-3-yl]sulfanyl]benzenecarbohydroxamic acid] as the compound, how does the IC50 [1] read?
Its IC50 is 50300 nM.

And the IC50 [3]?
The IC50 was no less than 100000 nM.

And the IC50 (recombinant human HDAC6)?
The IC50 was 16 nM.

With `CN(Cc1ccccc1)Cc1cccc(-c2nnc(Sc3c(F)cc(C(=O)NO)cc3F)n2C)c1` [comp. 184, 4-[[5-[3-[[benzyl(methyl)amino]methyl]phenyl]-4-methyl-1,2,4-triazol-3-yl]sulfanyl]-3,5-difluoro-benzenecarbohydroxamic acid] as the compound, how does the IC50 [1] read?
Its IC50 is 14700 nM.

And the IC50 [3]?
Its IC50 is no less than 100000 nM.

What about the IC50 (recombinant human HDAC6) of the same compound?
The IC50 was 17 nM.

For `Cn1c(Sc2c(F)cc(C(=O)NO)cc2F)nnc1C(C)(C)c1cccnc1` [comp. 186, 3,5-difluoro-4-[[4-methyl-5-[1-methyl-1-(3-pyridyl)ethyl]-1,2,4-triazol-3-yl]sulfanyl]benzenecarbohydroxamic acid], which “residual percentage in rat plasma” value (Stability in rat plasma) is on record?
The value was 75%.

And the IC50 [1]?
Its IC50 is 10400 nM.

What about the “residual percentage in rat S9 fraction” value [2] of the same compound?
The value was 9%.

What about the IC50 [3] of the same compound?
Its IC50 is no less than 100000 nM.

What about the IC50 (recombinant human HDAC6) of the same compound?
The IC50 was 23 nM.

With `O=C(NO)c1ccc(Sc2nnc(-c3ccccc3)o2)cc1` [comp. 188, 4-[(5-phenyl-1,3,4-oxadiazol-2-yl)sulfanyl]benzenecarbohydroxamic acid] as the compound, how does the “residual percentage in rat plasma” value (Stability in rat plasma) read?
Its value is 93%.

What about the “residual percentage in rat S9 fraction” value [2] of the same compound?
The value was 7%.

And the “residual percentage in human plasma” value [4]?
The value was 90%.

What about the “residual percentage in human S9 fraction” value [5] of the same compound?
Its value is 49%.

And the IC50 (recombinant human HDAC6)?
Its IC50 is 7 nM.

Which results are given for `O=C(NO)c1cc(F)c(Sc2nnc(-c3cccnc3)s2)c(F)c1` [comp. 191, 3,5-difluoro-N-hydroxy-4-((5-(pyridin-3-yl)-1,3,4-thiadiazol-2-yl)thio)benzamide]?
residual percentage in rat plasma (Stability in rat plasma): 92%; residual percentage in rat S9 fraction [2]: 35%; residual percentage in human plasma [4]: 93%; residual percentage in human S9 fraction [5]: 42%; IC50 (recombinant human HDAC6): 22 nM

Which “residual percentage in rat plasma” value (Stability in rat plasma) does the source give for `O=C(NO)c1cc(F)c(Sc2nnc(-c3ccccc3)o2)c(F)c1` [comp. 192, 3,5-difluoro-4-[(5-phenyl-1,3,4-oxadiazol-2-yl)sulfanyl]benzenecarbohydroxamic acid] here?
Its value is 90%.

What about the “residual percentage in rat S9 fraction” value [2] of the same compound?
Its value is 17%.

What about the “residual percentage in human plasma” value [4] of the same compound?
Its value is 100%.

And the “residual percentage in human S9 fraction” value [5]?
Its value is 43%.

What about the IC50 (recombinant human HDAC6) of the same compound?
Its IC50 is 31 nM.
